From patent US20210403567A1, “METHODS OF TREATING CERVICAL CANCER BY ADMINISTERING A PD-1 INHIBITOR” (priority 2020, published 2021)
“Also recorded” adds a separate entry of the source.

Experiments:
[1] = test system: recurrent or metastatic cervical cancer; test: Phase 3 trial, cemiplimab versus IC chemotherapy: quality of life, EORTC QLQ-C30 (GHS/QoL, functioning and symptom scales), MMRM LS mean change from baseline; type: in vivo, human
Protocol: QOL is measured by the EORTC QLQ-C30.
Quality of Life Questionnaires: Patient-reported outcomes are measured using the validated patient self-administered EORTC QLQ-C30 questionnaire. Patients are asked to complete these questionnaires prior to any study procedures being performed at a given study visit (during the on-study/treatment and follow-up periods).
QoL: Longitudinal change from baseline at each PRO assessment in the GHS/QoL and PF scales was analyzed using a mixed model with repeated measures (MMRM). Higher scores on these scales indicate better health status/function. […] The model generated least squares (LS) mean estimates, standard errors, 95% CIs and p-values (where applicable) for mean changes from baseline on each PRO assessment.
At baseline and Day 1 of each treatment cycle (up to 16), patients were administered the EORTC QLQ-030. Mixed-effects repeated measures models estimated least squares (LS) mean change from baseline across all scales. Responder analyses determined the proportions with clinically meaningful (using 10-point threshold) improvement or deterioration, or stability on QLQ-030.

[2] = Phase I expansion cohorts: safety, treatment-emergent adverse events (NCI CTCAE 4.03); type: in vivo, human
Protocol: The combination therapy cohort enrolled patients for whom palliative hfRT was planned to a lesion that was causing some signs or symptoms. The radiated lesion was not followed as a target lesion for response assessments.
Assessments: Tumor histology was assessed per local pathology reports of tumor samples obtained at any time prior to study enrollment. […] Extensive safety evaluations were performed during screening and on Day 1 of each subsequent treatment cycle throughout the study. Routine safety evaluations were performed at each cemiplimab dosing visit. Tumor response assessments were performed by investigators, per RECIST 1.1, at the end of each 8-week treatment cycle. In combination therapy cohorts, the lesions selected for hfRT were not included in RECIST 1.1 assessments.
Statistical analysis of clinical data: The safety summaries and analyses were performed on the safety analysis set. Data were summarized using descriptive statistics, along with two-sided 95% confidence interval (CI), by dose cohort. Continuous variables were summarized with mean, median, standard deviation, minimum, and maximum. Categorical variables were summarized with frequency and percentage. Kaplan-Meier analysis was performed for progression-free survival (PFS) and OS.

[3] = SCC patients, Overall Across Cycles
[4] = overall population, Overall Across Cycles

cemiplimab
Difference in LS mean change, Cemiplimab versus Chemotherapy, GHS/QoL [1, 3]: 8.49 | Difference in LS mean change, Cemiplimab versus Chemotherapy, Physical Functioning [1, 3]: 8.35 | LS mean change from baseline, EORTC QLQ-C30 GHS/QoL [1, 3]: 1.18 | LS mean change from baseline, EORTC QLQ-C30 Physical Functioning [1, 3]: 1.01 | Difference in LS mean change, Cemiplimab versus Chemotherapy, GHS/QoL ([1]; overall population, C2D1): 3.25 | LS mean change from baseline, EORTC QLQ-C30 GHS/QoL ([1]; overall population, C2D1): −1.03 | LS mean change from baseline, EORTC QLQ-C30 Physical Functioning ([1]; overall population, C2D1): −2.41 | Difference in LS mean change, Cemiplimab versus Chemotherapy, GHS/QoL ([1]; overall population, C3D1): 7.41 | Difference in LS mean change, Cemiplimab versus Chemotherapy, Physical Functioning ([1]; overall population, C3D1): 6.02 | LS mean change from baseline, EORTC QLQ-C30 GHS/QoL ([1]; overall population, C3D1): 1.19 | LS mean change from baseline, EORTC QLQ-C30 Physical Functioning ([1]; overall population, C3D1): 0.49 | Difference in LS mean change, Cemiplimab versus Chemotherapy, GHS/QoL ([1]; overall population, C4D1): 10.55 | Difference in LS mean change, Cemiplimab versus Chemotherapy, Physical Functioning ([1]; overall population, C4D1): 932 | LS mean change from baseline, EORTC QLQ-C30 GHS/QoL ([1]; overall population, C4D1): 4.47 | LS mean change from baseline, EORTC QLQ-C30 Physical Functioning ([1]; overall population, C4D1): 2.38 | Difference in LS mean change, Cemiplimab versus Chemotherapy, GHS/QoL ([1]; overall population, C5D1): 5.66 | Difference in LS mean change, Cemiplimab versus Chemotherapy, Physical Functioning ([1]; overall population, C5D1): 6.74 | LS mean change from baseline, EORTC QLQ-C30 GHS/QoL ([1]; overall population, C5D1): 0.48 | LS mean change from baseline, EORTC QLQ-C30 Physical Functioning ([1]; overall population, C5D1): −1.27 | Difference in LS mean change, Cemiplimab versus Chemotherapy, GHS/QoL ([1]; overall population, C6D1): 5.44 | Difference in LS mean change, Cemiplimab versus Chemotherapy, Physical Functioning ([1]; overall population, C6D1): 6.93 | LS mean change from baseline, EORTC QLQ-C30 GHS/QoL ([1]; overall population, C6D1): −0.29 | LS mean change from baseline, EORTC QLQ-C30 Physical Functioning ([1]; overall population, C6D1): −1.34 | Difference in LS mean change, Cemiplimab versus Chemotherapy, GHS/QoL ([1]; overall population, C7D1): 8.30 | Difference in LS mean change, Cemiplimab versus Chemotherapy, Physical Functioning ([1]; overall population, C7D1): 11.66 | LS mean change from baseline, EORTC QLQ-C30 GHS/QoL ([1]; overall population, C7D1): 3.32 | LS mean change from baseline, EORTC QLQ-C30 Physical Functioning ([1]; overall population, C7D1): −0.10 | Difference in LS mean change, Cemiplimab versus Chemotherapy, GHS/QoL ([1]; overall population, C8D1): 14.08 | Difference in LS mean change, Cemiplimab versus Chemotherapy, Physical Functioning ([1]; overall population, C8D1): 12.96 | LS mean change from baseline, EORTC QLQ-C30 GHS/QoL ([1]; overall population, C8D1): −1.09 | LS mean change from baseline, EORTC QLQ-C30 Physical Functioning ([1]; overall population, C8D1): −0.89 | course of GHS/QoL from baseline ([1]; overall population, EORTC QLQ-C30): improved or maintained GHS/QoL from baseline; also recorded: generally improve or maintain their baseline GHS/QOL | Difference in LS mean change, Cemiplimab versus Chemotherapy, GHS/QoL [1, 4]: 7.81 | Difference in LS mean change, Cemiplimab versus Chemotherapy, Physical Functioning [1, 4]: 8.26 | LS mean change from baseline, EORTC QLQ-C30 GHS/QoL [1, 4]: 1.01 | LS mean change from baseline, EORTC QLQ-C30 Physical Functioning [1, 4]: −0.45 | Treatment-related TEAEs (Grade 3) ([2]; 1/10): 10% | Treatment-related TEAE: Any ([2]; Grade ≥ 3, n = 10 per cohort): 1 n (%) | Treatment-related TEAE: Diarrhea ([2]; Grade ≥ 3, n = 10 per cohort): 0 n (%) | Treatment-related TEAE: Fatigue ([2]; Grade ≥ 3, n = 10 per cohort): 1 n (%) | Treatment-related TEAE: Hyponatremia ([2]; Grade ≥ 3, n = 10 per cohort): 0 n (%) | Treatment-related TEAE: Hypothyroidism ([2]; Grade ≥ 3, n = 10 per cohort): 0 n (%) | Treatment-related TEAE: Myalgia ([2]; Grade ≥ 3, n = 10 per cohort): 1 n (%) | Treatment-related TEAE: Pneumonitis ([2]; Grade ≥ 3, n = 10 per cohort): 0 n (%) | Treatment-related TEAE: Any ([2]; any grade, n = 10 per cohort): 7 n (%) | Treatment-related TEAE: Diarrhea ([2]; any grade, n = 10 per cohort): 2 n (%) | Treatment-related TEAE: Fatigue ([2]; any grade, n = 10 per cohort): 3 n (%) | Treatment-related TEAE: Hyponatremia ([2]; any grade, n = 10 per cohort): 1 n (%) | Treatment-related TEAE: Hypothyroidism ([2]; any grade, n = 10 per cohort): 2 n (%) | Treatment-related TEAE: Myalgia ([2]; any grade, n = 10 per cohort): 1 n (%) | Treatment-related TEAE: Pneumonitis ([2]; any grade, n = 10 per cohort): 1 n (%) | TEAE fatigue ([2]; both cohorts combined (5/20)): 25% | TEAE hypokalemia ([2]; both cohorts combined (5/20)): 25% | TEAE diarrhea ([2]; both cohorts combined (7/20)): 35% | patients who experienced grade TEAEs ([2]; four patients of 10 per cohort): 40.0% | TEAEs of any grade, regardless of treatment attribution ([2]; n = 10 per cohort): 9 patients | discontinued treatment due to TEAEs ([2]; n = 10 per cohort): No patients
